The text below walks through data of ChEMBL document CHEMBL2331395, “Natural product coumarins that inhibit human carbonic anhydrases” (Bioorg Med Chem, 2013).

The term Ki denotes a dissociation constant, usually derived from enzyme kinetics or from competition with a known ligand. Higher therefore signals weaker binding.

Test [1] addresses Carbonic anhydrase 2 (Homo sapiens, UniProt P00918). Put plainly: Inhibition of human carbonic anhydrase 2 preincubated for 6 hrs by CO2 hydration stopped-flow assay.
Test [2] addresses Carbonic anhydrase 9 (Homo sapiens, UniProt Q16790). Put plainly: Inhibition of human carbonic anhydrase 9 preincubated for 6 hrs by CO2 hydration stopped-flow assay.
Test [3] deals with Carbonic anhydrase 7 (Homo sapiens, UniProt P43166). Put plainly: Inhibition of human carbonic anhydrase 7 preincubated for 6 hrs by CO2 hydration stopped-flow assay.
In test [4] the target is Carbonic anhydrase 1 (Homo sapiens, UniProt P00915). The test is described as follows: Inhibition of human carbonic anhydrase 1 preincubated for 6 hrs by CO2 hydration stopped-flow assay.
Test [5] addresses Carbonic anhydrase 12 (Homo sapiens, UniProt O43570). Put plainly: Inhibition of human carbonic anhydrase 12 preincubated for 6 hrs by CO2 hydration stopped-flow assay.
Test [6] deals with Carbonic anhydrase 13 (Homo sapiens, UniProt Q8N1Q1). Put plainly: Inhibition of human carbonic anhydrase 13 preincubated for 6 hrs by CO2 hydration stopped-flow assay.

Each structure is given as a SMILES string.

Carbonic anhydrase 7, sequence (P43166 whole entry): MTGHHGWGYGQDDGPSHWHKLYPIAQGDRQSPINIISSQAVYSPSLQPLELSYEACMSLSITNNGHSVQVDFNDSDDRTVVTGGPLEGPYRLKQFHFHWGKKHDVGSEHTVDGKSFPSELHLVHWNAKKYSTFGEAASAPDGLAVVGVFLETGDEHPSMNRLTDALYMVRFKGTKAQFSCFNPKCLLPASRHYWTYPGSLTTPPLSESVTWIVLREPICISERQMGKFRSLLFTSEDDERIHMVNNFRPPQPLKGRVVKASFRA
Carbonic anhydrase 13, sequence (Q8N1Q1 whole entry): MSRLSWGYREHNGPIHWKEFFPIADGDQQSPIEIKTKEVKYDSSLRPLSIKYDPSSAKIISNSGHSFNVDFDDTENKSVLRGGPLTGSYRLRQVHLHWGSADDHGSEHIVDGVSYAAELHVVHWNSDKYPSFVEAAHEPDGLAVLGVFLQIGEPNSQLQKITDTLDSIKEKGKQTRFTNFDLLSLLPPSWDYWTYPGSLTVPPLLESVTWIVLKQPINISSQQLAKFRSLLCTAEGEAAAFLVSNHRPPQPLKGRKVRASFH
Carbonic anhydrase 12, sequence (O43570 whole entry): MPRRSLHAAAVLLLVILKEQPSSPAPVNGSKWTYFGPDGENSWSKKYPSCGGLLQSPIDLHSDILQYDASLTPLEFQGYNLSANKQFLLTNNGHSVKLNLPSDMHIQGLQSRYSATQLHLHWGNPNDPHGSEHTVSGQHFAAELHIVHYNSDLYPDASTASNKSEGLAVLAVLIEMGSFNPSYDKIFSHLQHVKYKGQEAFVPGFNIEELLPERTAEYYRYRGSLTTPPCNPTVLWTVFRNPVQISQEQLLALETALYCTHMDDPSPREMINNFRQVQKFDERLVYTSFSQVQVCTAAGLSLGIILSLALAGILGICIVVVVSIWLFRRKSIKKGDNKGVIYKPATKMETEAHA
Carbonic anhydrase 1, sequence (P00915 whole entry): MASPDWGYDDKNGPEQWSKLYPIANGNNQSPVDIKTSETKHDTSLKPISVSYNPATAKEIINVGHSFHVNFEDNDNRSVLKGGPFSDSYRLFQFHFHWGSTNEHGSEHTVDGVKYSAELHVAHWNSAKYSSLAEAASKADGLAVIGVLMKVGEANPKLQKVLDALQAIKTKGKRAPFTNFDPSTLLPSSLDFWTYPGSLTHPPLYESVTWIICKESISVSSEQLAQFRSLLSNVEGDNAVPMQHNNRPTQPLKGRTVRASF

As for `C/C(=C\Cc1cc2ccc(=O)oc2cc1O)CO`, the Ki in test [1] came out at 78.9 µM; in test [2], 9.75 µM.
Take `COc1ccc2ccc(=O)oc2c1C(C=O)=C(C)C` [MURRALONGIN]: the Ki in test [1] is more than 100 µM; in test [2] it was 8.12 µM.
As to `C/C(=C\COc1ccc2ccc(=O)oc2c1)C1=CC(=O)C(C)(C)O1` [GEIPARVARIN], the Ki in test [1] was more than 100 µM; in test [3], 7.82 µM; in test [4], 9.75 µM; in test [5], 0.83 µM; in test [2], 0.6 µM; in test [6] it was 9.62 µM.
Regarding `C=C(C)/C=C/c1c(OC)c2c(c3ccc(=O)oc13)OC(C)(C)C=C2`, the figures for the inhibitory constant (Ki) in test [1] and in test [2] were more than 100 µM and 0.62 µM, respectively.
On to `O=c1ccc2ccccc2o1` [COUMARIN], for which the Ki in test [3] and in test [6] was more than 1000 µM throughout.
On to `COc1c2c(cc3oc(=O)ccc13)OC(C)(C)C=C2` [XANTHOXYLETIN], for which the Ki was more than 100 µM in test [1]; 6.27 µM in test [3]; 7.71 µM in test [4]; 0.96 µM in test [5]; 0.74 µM in test [2]; 3.15 µM in test [6].
Regarding `C=C(C)C(COC(=O)c1cccnc1)c1c(OC)ccc2ccc(=O)oc12` (centres undefined), the results for the Ki in test [1], in test [3] and in test [2] were more than 100 µM, more than 100 µM and 0.67 µM, respectively.
On to `COc1cc2oc(=O)ccc2cc1O` [ISOSCOPOLETIN], for which the Ki in test [1] is more than 100 µM; in test [3] it was 23.8 µM; in test [4], 14 µM; in test [5], 4.14 µM; in test [2], 7.37 µM; in test [6], 5.27 µM.
As to `CC1(C)C=Cc2cc3ccc(=O)oc3cc2O1` [XANTHYLETIN], the Ki was more than 100 µM in test [1]; 9.18 µM in test [3]; 21.5 µM in test [4]; 25.7 µM in test [5]; 7.51 µM in test [2]; 8.36 µM in test [6].
On to `COc1cc2ccc(=O)oc2c(O[C@@H]2O[C@H](CO)[C@@H](O)[C@H](O)[C@H]2O)c1O` [FRAXINE], for which the Ki in test [1] is more than 100 µM; in test [3] it was 3.87 µM; in test [4], 5.04 µM; in test [5] it was 7.45 µM; in test [2] it was 0.37 µM; in test [6], 9.8 µM.
Consider `COc1ccc(-c2c3n(c4c(=O)oc5cc(OC)c(O)cc5c24)CCc2cc(OS(=O)(=O)O)c(OC)cc2-3)cc1O`, for which the values for the Ki in test [1] and in test [2] were more than 100 µM and 3.27 µM, respectively.
Take `COc1cc2c(=O)oc3c(OC)c(OC)cc4c(=O)oc(c1O)c2c34`: the Ki was more than 100 µM in test [1] and 17.4 µM in test [2].
For `O=c1oc2c(O)c(O)cc3c(=O)oc4c(O)c(O)cc1c4c23` [ELLAGIC ACID], the Ki in test [3] is 8.79 µM; in test [4], 68.2 µM; in test [5], 8.15 µM; in test [2], 79.8 µM; in test [6], 4.24 µM.
On to `COc1cc2ccc(=O)oc2c(O)c1OC`, for which the Ki in test [1] is more than 100 µM; in test [2], 0.85 µM.
The like results for `C/C(=C\COc1ccc2ccc(=O)oc2c1)CCC(=O)C(C)(C)O` were, in that order, more than 100 µM and 4.03 µM.
Regarding `COc1cc2oc(=O)ccc2c2c1C=CC(C)(C)O2` [ALLOXANTHOXYLETIN], the Ki in test [1] is more than 100 µM; in test [2], 3.5 µM.
Regarding `COc1cc(-c2c3c4cc(OC)c(O)cc4oc(=O)c3n3ccc4c(OC)c(OC)c(OC)cc4c23)ccc1O`, the Ki is more than 100 µM in test [1] and 6.33 µM in test [2].
On to `COc1cc2ccc(=O)oc2cc1O[C@@H]1O[C@H](CO)[C@@H](O)[C@H](O)[C@H]1O` [SCOPOLIN], for which the Ki in test [1] is more than 100 µM; in test [2], 8.72 µM.
Turning to `COc1c2c(c(OC)c3oc(=O)ccc13)OC(C)(C)C=C2`, the Ki in test [1] was 49.3 µM; in test [2], 0.86 µM; in test [6], more than 100 µM.
Consider `CCCc1cc(=O)oc2c3c(c4c(c12)OC(C)(C)C=C4)O[C@H](C)[C@@H](C)[C@H]3O` [(+)-CALANOLIDE B], for which the Ki in test [1] came to 50.7 µM; in test [3], 8.87 µM; in test [4], 9.31 µM; in test [5], 0.81 µM; in test [6], 21 µM.
For the compound `COc1cc2ccc(=O)oc2cc1O` [SCOPOLETIN], the Ki in test [1] is more than 100 µM; in test [3], 8.71 µM; in test [4], 10.6 µM; in test [5], 4.05 µM; in test [2] it was 0.96 µM; in test [6] it was 17.8 µM.
Consider `COc1cc2ccc(=O)oc2c(OC)c1OC` [FRAXIDIN METHYL ETHER], for which the Ki in test [1] is more than 100 µM; in test [3], 9.28 µM; in test [4], 0.0097 µM; in test [5], 18.2 µM; in test [2], 6.58 µM; in test [6], 4.24 µM.
With `CC(CCOc1ccc2ccc(=O)oc2c1)C1=CC(=O)C(C)(C)O1` (centres undefined), the Ki worked out at 63.4 µM in test [1] and 0.89 µM in test [2].
In the same order, the values of `COc1ccc(-c2c3n(c4c(=O)oc5cc(O)c(OC)cc5c24)CCc2c-3cc(OC)c(OC)c2O)cc1O` are more than 100 µM and 3.22 µM.
In the case of `COc1cc(OC)c2ccc(=O)oc2c1OC`, the Ki came out at 9.65 µM in test [1] and 0.76 µM in test [2].
On to `COc1c2c(c3ccc(=O)oc3c1/C=C/C(C)(C)O)OC(C)(C)C=C2` [AVICENNOL], for which the Ki is more than 100 µM in test [1]; 8.98 µM in test [3]; 8.46 µM in test [4]; 0.77 µM in test [5]; 0.78 µM in test [2]; 29.3 µM in test [6].
With `COc1c(O)ccc2ccc(=O)oc12`, the Ki in test [1] is more than 100 µM; in test [2], 0.85 µM.
